Test results: patent US7115572B2, “Indolicidin analogs with anti-microbial activity” (Council of Scientific and Industrial Research, priority 2001, dated 2006)
Read-outs that look alike come from different tables or passages of the source. Marks after values point to notes of the source that are not given here. No end group written: not given here.

What was measured:
Format in all cases: cell-based
rat erythrocytes = assay: Hemolytic activity on freshly isolated rat erythrocytes
Procedure: In still another embodiment of the present invention, hemolytic activity of the peptides is assessed on freshly isolated rat erythrocytes.
In still another embodiment of the present invention, heparinized rat blood in saline is initially centrifuged at 1000 rpm for 10 min to remove the buffy coat.
In still another embodiment of the present invention, the erythrocyte suspension is further washed thrice with 5 mM Hepes, pH 7.4 containing 150 mM NaCl.
In still another embodiment of the present invention, aliquots of cell suspension (˜10^6 cells) in eppendorf tubes are incubated with the peptide in duplicates at 37° C. for 30 min with gentle mixing.
In still another embodiment of the present invention, the tubes are then centrifuged and the absorbance of the supernatants is measured at 540 nm. The lysis obtained with 1% triton×100 is taken as 100%.

Staphylococcus aureus = tested on: Staphylococcus aureus
Procedure: (§1) In still another embodiment of the present invention, the antimicrobial activities of the peptides are determined in liquid medium by a modified method described by Lehrer et al. (10) In still another embodiment of the present invention, all incubations are carried out at 37° C. Microbial growth is determined by measuring the increase in OD600. The lowest concentration of the peptide that result in complete inhibition of growth is recorded as its minimal inhibitory concentration (MIC). In still another embodiment of the present invention, the microorganisms used are Escherichia coli ([…]) and Staphylococcus aureus. A peptide concentration in stock solution is determined by amino acid analysis.

[1] = tested on: Escherichia coli (W160.37)
Procedure: as §1

[2] = lowest concentration giving complete inhibition of growth, 37° C., OD600

| S.aureus (MIC μg/ml) (Staphylococcus aureus) | E.CO// (MIC μg/ml) ([1]; W160.37) | Compound | % Hemolytic activity at 100 μg/ml (rat erythrocytes; red cells of rat, 100) | % Hemolytic activity at 100 μg/ml (rat erythrocytes; 100 μg/ml peptide, rat erythrocytes, 37° C., 30 min, 1% triton x100 = 100%) | S.aureus (MIC μg/ml) (Staphylococcus aureus; [2]) | E.CO// (MIC μg/ml) [1, 2] |
| --- | --- | --- | --- | --- | --- | --- |
| 5 µg/mL | 20 µg/mL | ILPLKLPLLPWRR-NH2 [IL11, ILPLKLPLLPWRR-amide] | 0% |  |  |  |
| 10 µg/mL | 20 µg/mL | ILPLKLPWLPLRR-NH2 [IL8, ILPLKLPWLPLRR-amide] | 0% |  |  |  |
|  |  | CC[C@H](C)[C@H](N)C(=O)N[C@@H](CC(C)C)C(=O)N1CCC[C@H]1C(=O)N[C@@H](Cc1c[nH]c2ccccc12)C(=O)N[C@@H](CCCCN)C(=O)N[C@@H](Cc1c[nH]c2ccccc12)C(=O)N1CCC[C@H]1C(=O)N[C@@H](Cc1c[nH]c2ccccc12)C(=O)N[C@@H](Cc1c[nH]c2ccccc12)C(=O)N1CCC[C@H]1C(=O)N[C@@H](Cc1c[nH]c2ccccc12)C(=O)N[C@@H](CCCNC(=N)N)C(=O)N[C@@H](CCCNC(=N)N)C(N)=O [IL, ILPWKWPWWPWRR-amide, reference compound] |  | 100^a % | 2 µg/mL | 5 µg/mL |
| 10 µg/mL | 15 µg/mL | ILPWKLPLLPLRR-NH2 [IL4, ILPWKLPLLPLRR-amide] | 0% |  |  |  |
